# Where “and” joins values, the source holds several entries; their conditions need not be identical. Identical values can stand only once.
# Columns and labels:
# ApoE [1] = assay: in vivo effect of probucol on ApoE levels in murine tissues, immunoblot densitometry; conditions: mice; for ApoE G/Dens (% Peak) / ApoE G/Dens-DD / ApoE G/DxA (% Total): pooled
# Method: To extend the foregoing in vitro studies, the following animal study was conducted. […] At the end of ten days, the animals were sacrificed and the brain tissue collected, rapidly dissected, and the hippocampi were isolated. The livers, tissue, and blood were also collected. Tissue homogenates from all ten animals were pooled and the ApoE levels in the different tissues were determined by immunoblot.
# ApoE [2] = assay: clinical trial: ApoE levels in CSF of AD patients treated with probucol, immunoblot; format: in vivo, human; conditions: probucol 1000 mg/day; for Average Change in ApoE (% baseline): one month of treatment, 8 patients
# Method: Biological Marker: A lumbar puncture was performed at baseline and one month after treatment. The relative concentrations of ApoE levels in the CSF were determined by immunoblot as described by Poirer, J. et al., Neuroscience 55:81-90 (1993).
# The cerebral spinal fluid (CSF) of the above subjects was analyzed for the concentration of ApoE protein by immunoblot using an internal standard. The samples for the first six patients were analyzed independently of the last two patients, thus the scales for patients 1-6 are different from the scales for patients 8 and 9.
# Alzheimer's disease [3] = assay: clinical trial: ADAS-Cog (70 point scale); format: in vivo, human
# Method: Neuropsychological Assessment: The Alzheimer's Disease Assessment Scale, Cognitive Part (ADAS-Cog) (see Rosen et al., Am. J. Psychiatr., 141:1356-1364 (1984)) was used as an objective neuropsychological measure. It consists of a battery of neuropsychological tests for different cognitive functions. The battery comes to a single score with a maximum of 70 points and is administered in about 45 minutes to patients. A 117 point extended scale version of this test was also used (see Table 5). […] The ADAS includes both cognitive (ADAS-Cog) and non-cognitive (ADAS-Noncog) subscales and the tests components of memory, language, and behavior. […] We further assessed the cognitive functioning of these patients with the extended scale ADAS-Cog test.
# Alzheimer's disease [4] = assay: clinical trial: ADAS-Cog (extended 117 point scale); format: in vivo, human
# Method: Neuropsychological Assessment: The Alzheimer's Disease Assessment Scale, Cognitive Part (ADAS-Cog) (see Rosen et al., Am. J. Psychiatr., 141:1356-1364 (1984)) was used as an objective neuropsychological measure. It consists of a battery of neuropsychological tests for different cognitive functions. The battery comes to a single score with a maximum of 70 points and is administered in about 45 minutes to patients. A 117 point extended scale version of this test was also used (see Table 5). The extended 117 pt. […] The scoring method for this modified ADAS-Cog test ranges from 0 […].
# Alzheimer's disease [5] = assay: clinical trial: Clinical Impression of Change (CIBIC-Plus); format: in vivo, human; parameters: key to CIBIC Scores, 3 months, Average / CIBIC Scores, 6 months, Average: 7-point scale: 1 = very much improved, 4 = no change, 7 = very much worse
# Method: Neuropsychological Assessment: The Clinical Impression of Change (CIBIC-Plus) and the Global Deterioration Scale (GDS) were recorded at 3 and 6 months. The Clinical Impression of Change (CIBIC-Plus) consists of the holistic impression by the clinician of whether the patient has shown any change since baseline as rated on a seven point sale (marked, moderate, mild improvement, no change, or marked, moderate, mild decline). The Global Deterioration Scale rates clinically identifiable stages of dementia. […] This test provides a holistic impression by the clinician of whether the patient has shown any change since baseline. The CIBIC is scored as a seven point scale, with a range from 1=“very much improved” to 4=“no change” to 7=“very much worse.” Changes in the CIBIC score have shown only weak correlation with changes in the ADAS-Cog and have been reported to be less sensitive to change than other measures. The FDA guidelines are widely interpreted as mandating the use of the CIBIC and this scale serves to measure the impact of treatment protocols on the quality of life for the patient.
# β-amyloid protein (1-42) = assay: clinical trial: CSF β-amyloid (1-42); format: in vivo, human; conditions: individual AD patient
# Source text: Biological Markers: Additional biochemical markers included phenotyping of the patients ApoE and determining relative concentrations of tau protein, P-amyloid protein (1-42 and 1-40); and relative extent of lipid peroxidation.
# Tables 11 and 12 summarize the changes in total β-amyloid protein (1-40 and 1-42) at one month, as a percentage of the baseline values.
# ApoE-knockout mice = assay: ApoE knockout mouse transient focal ischemia stroke model; format: in vivo; conditions: 5 mg i.p. daily for ten days, if ApoE induction is necessary for neuroprotection
# Method: To extend these animal studies, the ApoE knockout mouse may be exploited to assess the role of ApoE in probucol-mediated neuroprotection for stroke.
# This protocol is carried out as similarly described for the rat model above, with some modifications. […] On the tenth day, animals are subjected to a transient focal ischemia by intraluminal occlusion of the middle cerebral artery. Infarct volume, neurological outcome, and cerebral flow will be monitored.
# [6] = Blood, 0.1 mg i.p. daily for ten days
# [7] = Blood, 0.5 mg i.p. daily for ten days
# [8] = Blood, 5.0 mg i.p. daily for ten days
# [9] = Hippocampus, 0.1 mg i.p. daily for ten days
# [10] = Hippocampus, 0.5 mg i.p. daily for ten days
# [11] = Hippocampus, 5.0 mg i.p. daily for ten days
# [12] = Liver, 0.1 mg i.p. daily for ten days
# [13] = Liver, 0.5 mg i.p. daily for ten days
# [14] = Liver, 5.0 mg i.p. daily for ten days
# [15] = highest administered dose (5 mg), ten days
# [16] = average of patients, baseline average 28.9
# [17] = individual AD patient, higher score indicates poorer performance
# [18] = average of patients, baseline average 66.8
# [19] = individual AD patient, 117 is the best possible score
# [20] = individual AD patient, 1 very much improved, 4 no change, 7 very much worse
structure (smiles),measurement,setting,value
CC(C)(Sc1cc(C(C)(C)C)c(O)c(C(C)(C)C)c1)Sc1cc(C(C)(C)C)c(O)c(C(C)(C)C)c1 [probucol],ApoE G/Dens (% Peak),ApoE [1]; [6],70.886 % Peak
same,ApoE G/Dens-DD,ApoE [1]; [6],0.2783
same,ApoE G/DxA (% Total),ApoE [1]; [6],19.187 % Total
same,ApoE G/Dens (% Peak),ApoE [1]; [7],57.610 % Peak
same,ApoE G/Dens-DD,ApoE [1]; [7],0.2262
same,ApoE G/DxA (% Total),ApoE [1]; [7],14.885 % Total
same,ApoE G/Dens (% Peak),ApoE [1]; [8],45.847 % Peak
same,ApoE G/Dens-DD,ApoE [1]; [8],0.1800
same,ApoE G/DxA (% Total),ApoE [1]; [8],11.846 % Total
same,ApoE G/Dens (% Peak),ApoE [1]; [9],18.571 % Peak
same,ApoE G/Dens-DD,ApoE [1]; [9],0.0729
same,ApoE G/DxA (% Total),ApoE [1]; [9],4.570 % Total
same,ApoE G/Dens (% Peak),ApoE [1]; [10],14.958 % Peak
same,ApoE G/Dens-DD,ApoE [1]; [10],0.0587
same,ApoE G/DxA (% Total),ApoE [1]; [10],3.497 % Total
same,ApoE G/Dens (% Peak),ApoE [1]; [11],25.469 % Peak
same,ApoE G/Dens-DD,ApoE [1]; [11],0.1000
same,ApoE G/DxA (% Total),ApoE [1]; [11],5.954 % Total
same,ApoE G/Dens (% Peak),ApoE [1]; [12],21.386 % Peak
same,ApoE G/Dens-DD,ApoE [1]; [12],0.0840
same,ApoE G/DxA (% Total),ApoE [1]; [12],5.263 % Total
same,ApoE G/Dens (% Peak),ApoE [1]; [13],11.315 % Peak
same,ApoE G/Dens-DD,ApoE [1]; [13],0.0444
same,ApoE G/DxA (% Total),ApoE [1]; [13],2.506 % Total
same,ApoE G/Dens (% Peak),ApoE [1]; [14],8.268 % Peak
same,ApoE G/Dens-DD,ApoE [1]; [14],0.0325
same,ApoE G/DxA (% Total),ApoE [1]; [14],1.933 % Total
same,"levels of ApoE in the blood, % of the control value",ApoE [1]; [15],60%
same,"levels of ApoE in the liver, % of the control value",ApoE [1]; [15],60%
same,"levels of ApoE in the brain, % of the control value","ApoE [1]; highest dose evaluated (5 mg), ten days",approximately 150%
same,Change in ApoE (% baseline),"ApoE [2]; 1 month, individual AD patient",118% baseline and 89% baseline and 87% baseline and 152% baseline and 105% baseline and 178% baseline and 136% baseline and 133% baseline
same,ApoE 1 month (ROD),"ApoE [2]; individual AD patient, scales of patients 1-6 differ from patients 8 and 9",2.59 ROD and 7.14 ROD and 9.17 ROD and 0.1086 ROD and 0.0861 ROD and 8.03 ROD and 14.81 ROD and 10.27 ROD
same,Average Change in ApoE (% baseline),ApoE [2],125%
same,Average Change in ApoE (% baseline),ApoE [2]; listed as Probucol,125%
same,"ADAS-Cog (70 point scale) score, 3 months, Average",Alzheimer's disease [3]; [16],29.5
same,"ADAS-Cog (70 point scale) score, 6 months, Average",Alzheimer's disease [3]; [16],30.13
same,"ADAS-Cog (70 point scale) score, 3 months",Alzheimer's disease [3]; [17],37 and 41 and 22 and 18 and 27 and 29 and 34 and 28
same,"ADAS-Cog (70 point scale) score, 6 months",Alzheimer's disease [3]; [17],40 (2×) and 44 and 16 and 17 and 25 and 36 and 23
same,"ADAS-Cog (117 point scale) score, 3 months, Average",Alzheimer's disease [4]; [18],65.6
same,"ADAS-Cog (117 point scale) score, 6 months, Average",Alzheimer's disease [4]; [18],68.1
same,"ADAS-Cog (117 point scale) score, 3 months",Alzheimer's disease [4]; [19],73 (2×) and 51 and 63 (3×) and 83 and 56
same,"ADAS-Cog (117 point scale) score, 6 months",Alzheimer's disease [4]; [19],74 and 49 and 82 (2×) and 63 and 58 and 72 and 65
same,"number of patients that appeared to stabilize or improve, ADAS-Cog (117 point scale)","Alzheimer's disease [4]; six month treatment, eight patients",five
same,CIBIC-Plus evaluation for the group as a whole,Alzheimer's disease [5]; 6 month course of treatment,slight deterioration
same,"CIBIC Scores, 3 months, Average",Alzheimer's disease [5]; average of patients,3.9
same,"CIBIC Scores, 6 months, Average",Alzheimer's disease [5]; average of patients,5.3
same,"CIBIC Scores, 3 months",Alzheimer's disease [5]; [20],3 (3×) and 5 (2×) and 4 (4×)
same,"CIBIC Scores, 6 months",Alzheimer's disease [5]; [20],5 (4×) and 6 (3×) and 4
same,"[β amyloid 1-42] in the CSF, % change",β-amyloid protein (1-42); 1 month as a percentage of the baseline value,242% and 142% (2×) and 56% and 195% and 624% and 2144%
same,"[β amyloid 1-42] in the CSF, 1 month",β-amyloid protein (1-42); average of triplicate assays,2.48 and 3.92 and 0.76 and 1.78 and 2.15 and 0.31 and 1.06 and 1.29
same,benefit in ApoE-knockout animals,ApoE-knockout mice,little or no benefit
